Results on 29 compounds are retold here after patent publication US12187721B2, “Protein tyrosine phosphatase inhibitors” (Array BioPharma Inc., priority 2018, dated 2025).

For this experiment, the target named is T1, full-length SHP2 (His6-tagged SHP2(2-527)) (Homo sapiens, UniProt Q06124).
T1 construct: His6-tagged SHP2(2-527); His6; made in house; host or cells: E. coli
Kind of experiment: SHP2 Enzymatic Assay (fluorescence intensity kinetic assay, DiFMUP hydrolysis). Format: biochemical. As to the method:
A fluorescence intensity kinetic assay was configured for full-length SHP2 that monitors the amount of 6,8-difluoro-7-hydroxy-4-methylcoumarin (“DiFMU”) formed upon hydrolysis of 6,8-difluoro-4-methylumbelliferyl phosphate (“DiFMUP”) by SHP2. Assay mixtures consisted of 25 mM K^+HEPES, pH 7.4, 0.01% Triton X-100, 1 mM DTT, 50 mM KCl, 100 μg/mL bovine γ-globulin, 50 μM DiFMUP, 1 μM SHP2 activating peptide (LN(pY)IDLDLV(dPEG8)LST(pY)ASINFQK-amide), 1 nM full-length SHP2 (His6-tagged SHP2(2-527), recombinantly expressed in E. coli and purified in-house) and 2% dimethylsulfoxide (“DMSO”) (from compound). […] The assay was run in 384-well, polystyrene, low-volume, non-treated, black microtiter plates (Costar 4511) in a final volume of 20 μL. Low control wells lacked enzyme. The assays were initiated by the addition of a mixture of SHP2 and the activating peptide, and following a 15 second mix on an orbital shaker, were read in kinetic mode for 15 minutes (30 seconds/cycle) at ambient temperature on a PerkinElmer EnVision microplate reader (λEx=355 nm, λEm=460 nm). Initial velocities (slopes of the tangents at t=0) were estimated from exponential fits to the slightly nonlinear progress curves and then were converted to percent of control (“POC”) using the following equation:
[formula] • Where: Xmax Average Uninhibited Controls • Xmin Average Background A 4-parameter logistic model was the fit to the POC data for each compound. From that fit, the IC50 was estimated and is defined as the concentration of compound at which the curve crosses 50 POC.
The reported IC50 in Table 1 may be from a single assay or the mean of multiple assays.

T1 sequence (Q06124 2-527): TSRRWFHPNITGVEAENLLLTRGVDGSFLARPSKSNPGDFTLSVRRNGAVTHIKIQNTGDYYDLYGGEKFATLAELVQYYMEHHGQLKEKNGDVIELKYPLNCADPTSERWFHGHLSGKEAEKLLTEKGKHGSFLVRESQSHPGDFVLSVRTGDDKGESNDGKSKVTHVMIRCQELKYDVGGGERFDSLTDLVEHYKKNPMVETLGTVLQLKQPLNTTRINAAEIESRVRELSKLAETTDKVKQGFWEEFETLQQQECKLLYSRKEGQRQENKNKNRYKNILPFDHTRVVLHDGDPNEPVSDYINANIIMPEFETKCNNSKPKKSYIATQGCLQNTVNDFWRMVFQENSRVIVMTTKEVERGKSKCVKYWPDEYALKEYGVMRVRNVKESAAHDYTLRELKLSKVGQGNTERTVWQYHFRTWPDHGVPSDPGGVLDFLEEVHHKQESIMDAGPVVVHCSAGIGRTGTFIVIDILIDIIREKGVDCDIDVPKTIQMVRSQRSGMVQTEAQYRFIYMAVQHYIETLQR

Broadly, the IC50 is the concentration that gives 50% inhibition. Higher therefore signals weaker potency. Turning to `C[C@@H]1OCC2(CCN(c3cnc4nc(Sc5cc(N)nc(Cl)c5Cl)ccc4n3)CC2)[C@@H]1N` [Example 68, (3S,4S)-8-(6-((6-amino-2,3-dichloropyridin-4-yl)thio)pyrido[2,3-b]pyrazin-2-yl)-3-methyl-2-oxa-8-azaspiro[4,5]decan-4-amine], half-maximal inhibition (IC50) required 69 nM.
For `C[C@@H]1OCC2(CCN(c3cnc4nc(N5CCCc6ccccc65)ccc4n3)CC2)[C@@H]1N` [Example 69, (3S,4S)-8-(6-(3,4-dihydroquinolin-1(2H)-yl)pyrido[2,3-b]pyrazin-2-yl)-3-methyl-2-oxa-8-azaspiro[4,5]decan-4-amine], the IC50 was 79 nM.
The figure for `C[C@@H]1OCC2(CCN(c3cnc4nc(N5CCNc6ccccc65)ccc4n3)CC2)[C@@H]1N` [Example 70, (3S,4S)-8-(6-(3,4-dihydroquinoxalin-1(2H)-yl)pyrido[2,3-b]pyrazin-2-yl)-3-methyl-2-oxa-8-azaspiro[4.5]decan-4-amine] is 5970 nM; for `Cc1c(Sc2ccc3nc(N4CCC5(CC4)CO[C@@H](C)[C@H]5N)cnc3n2)ccnc1N` [Example 72, (3S,4S)-8-(6-((2-amino-3-methylpyridin-4-yl)thio)pyrido[2,3-b]pyrazin-2-yl)-3-methyl-2-oxa-8-azaspiro[4,5]decan-4-amine] it is 149 nM.
`CC1(N)CCCN(c2cnc3nc(Sc4ccnc(N)c4Cl)ccc3n2)CC1` (centres unmarked) [Example 73, 1-(6-((2-amino-3-chloropyridin-4-yl)thio)pyrido[2,3-b]pyrazin-2-yl)-4-methylazepan-4-amine]: the IC50 is 35 nM.
Take `C[C@@H]1OCC2(CCN(c3cnc4nc(Sc5ccnc(N6CCS(=O)(=O)CC6)c5Cl)ccc4n3)CC2)[C@@H]1N` [Example 77, 4-(4-((2-((3S,4S)-4-amino-3-methyl-2-oxa-8-azaspiro[4.5]decan-8-yl)pyrido[2,3-b]pyrazin-6-yl)thio)-3-chloropyridin-2-yl)thiomorpholine 1,1-dioxide]: the IC50 is 344 nM.
Take `C[C@@H]1OCC2(CCN(c3cnc4nc(Sc5ccnc(N6CCOCC6)c5Cl)ccc4n3)CC2)[C@@H]1N` [Example 79, (3S,4S)-8-(6-((3-chloro-2-morpholinopyridin-4-yl)thio)pyrido[2,3-b]pyrazin-2-yl)-3-methyl-2-oxa-8-azaspiro[4,5]decan-4-amine]: the IC50 amounted to 425 nM.
Regarding `CC(=O)N1CCN(c2nccc(Sc3ccc4nc(N5CCC6(CC5)CO[C@@H](C)[C@H]6N)cnc4n3)c2Cl)CC1` [Example 80, 1-(4-(4-((2-((3S,4S)-4-amino-3-methyl-2-oxa-8-azaspiro[4.5]decan-8-yl)pyrido[2,3-b]pyrazin-6-yl)thio)-3-chloropyridin-2-yl)piperazin-1-yl)ethan-1-one], inhibition was half-maximal at 743 nM (IC50).
As to `Nc1nccc(Sc2ccc3nc(N4CCC(N)CC4)cnc3n2)c1Cl` [Example 81, 4-((2-(4-aminopiperidin-1-yl)pyrido[2,3-b]pyrazin-6-yl)thio)-3-chloropyridin-2-amine], the IC50 worked out at 72 nM.
The figure for `Nc1nccc(Sc2ccc3nc(N4CC[C@@H](N)[C@H](O)C4)cnc3n2)c1Cl` [Example 82, (3R,4R)-4-amino-1-(6-((2-amino-3-chloropyridin-4-yl)thio)pyrido[2,3-b]pyrazin-2-yl)piperidin-3-ol] is 65 nM; for `Nc1nccc(Sc2ccc3nc(N4CCC5(CCCC5N)C4)cnc3n2)c1Cl` (centres unmarked) [Example 83, 2-(6-((2-amino-3-chloropyridin-4-yl)thio)pyrido[2,3-b]pyrazin-2-yl)-2-azaspiro[4.4]nonan-6-amine] it is 173 nM; for `Nc1nccc(Sc2ccc3nc(N4CC[C@@H](N)[C@@H](O)C4)cnc3n2)c1Cl` [Example 84, (3S,4R)-4-amino-1-(6-((2-amino-3-chloropyridin-4-yl)thio)pyrido[2,3-b]pyrazin-2-yl)piperidin-3-ol] it is 102 nM.
The figure for `NCC1CN(c2cnc3nc(Sc4ccnc(N)c4Cl)ccc3n2)C1` [Example 85, 4-((2-(3-(aminomethyl)azetidin-1-yl)pyrido[2,3-b]pyrazin-6-yl)thio)-3-chloropyridin-2-amine] is 481 nM; for `NCC1(CO)CCN(c2cnc3nc(Sc4ccnc(N)c4Cl)ccc3n2)CC1` [Example 86, (1-(6-((2-amino-3-chloropyridin-4-yl)thio)pyrido[2,3-b]pyrazin-2-yl)-4-(aminomethyl)piperidin-4-yl)methanol] it is 53 nM.
The figure for `C[C@@H]1OCC2(CCN(c3cnc4nc(Sc5ccnc(N6CC[C@H](CO)C6)c5Cl)ccc4n3)CC2)[C@@H]1N` [Example 87, ((S)-1-(4-((2-((3S,4S)-4-amino-3-methyl-2-oxa-8-azaspiro[4.5]decan-8-yl)pyrido[2,3-b]pyrazin-6-yl)thio)-3-chloropyridin-2-yl)pyrrolidin-3-yl)methanol] is 126 nM.
Turning to `C[C@@H]1OCC2(CCN(c3cnc4nc(Sc5ccnc(N6CC[C@H](O)C6)c5Cl)ccc4n3)CC2)[C@@H]1N` [Example 88, (S)-1-(4-((2-((3S,4S)-4-amino-3-methyl-2-oxa-8-azaspiro[4.5]decan-8-yl)pyrido[2,3-b]pyrazin-6-yl)thio)-3-chloropyridin-2-yl)pyrrolidin-3-ol], half-maximal inhibition (IC50) required 105 nM.
Regarding `C[C@@H]1OCC2(CCN(c3cnc4nc(Sc5ccnc(N6CCC(O)C6)c5Cl)ccc4n3)CC2)[C@@H]1N` (stereo partly drawn) [Example 89, 1-(4-((2-((3S,4S)-4-amino-3-methyl-2-oxa-8-azaspiro[4.5]decan-8-yl)pyrido[2,3-b]pyrazin-6-yl)thio)-3-chloropyridin-2-yl)pyrrolidin-3-ol], the midpoint of inhibition, the IC50, lay at 79 nM.
Take `C[C@@H]1OCC2(CCN(c3cnc4nc(Sc5ccnc(CO)c5Cl)ccc4n3)CC2)[C@@H]1N` [Example 90, (4-((2-((3S,4S)-4-amino-3-methyl-2-oxa-8-azaspiro[4.5]decan-8-yl)pyrido[2,3-b]pyrazin-6-yl)thio)-3-chloropyridin-2-yl)methanol]: the midpoint of inhibition, the IC50, lay at 183 nM. This IC50 lies about 2.3-fold higher than the previous one.
On to `CN(C)C1C[C@@H]2CC[C@@H](C1)N2c1cnc2nc(Sc3ccnc(N)c3Cl)ccc2n1` (stereo partly drawn) [Example 92, (1R,3s,5S)-8-(6-((2-amino-3-chloropyridin-4-yl)thio)pyrido[2,3-b]pyrazin-2-yl)-N,N-dimethyl-8-azabicyclo[3.2.1]octan-3-amine], for which the midpoint of inhibition, the IC50, lay at 66 nM. This IC50 lies about 2.8-fold lower than the previous one.
`CNC1C[C@@H]2CC[C@@H](C1)N2c1cnc2nc(Sc3ccnc(N)c3Cl)ccc2n1` (stereo partly drawn) [Example 93, (1S,3s,5S)-8-(6-((2-amino-3-chloropyridin-4-yl)thio)pyrido[2,3-b]pyrazin-2-yl)-N-methyl-8-azabicyclo[3.2.1]octan-3-amine] registered an IC50 of 49 nM. This IC50 and that of the compound before are within 1.5-fold of each other.
Compound `Cc1nccc(Sc2ccc3nc(N4CCC(C)(N)CC4)cnc3n2)c1Cl` [Example 94, 1-(6-((3-chloro-2-methylpyridin-4-yl)thio)pyrido[2,3-b]pyrazin-2-yl)-4-methylpiperidin-4-amine] gave an IC50 of 49 nM.
The figure for `CC1(N)CCN(c2cnc3nc(Sc4cccnc4N)ccc3n2)CC1` [Example 95, 3-((2-(4-amino-4-methylpiperidin-1-yl)pyrido[2,3-b]pyrazin-6-yl)thio)pyridin-2-amine] is 4720 nM.
Take `Cc1nc(Cl)ccc1Sc1ccc2nc(N3CCC(C)(N)CC3)cnc2n1` [Example 96, 1-(6-((6-chloro-2-methylpyridin-3-yl)thio)pyrido[2,3-b]pyrazin-2-yl)-4-methylpiperidin-4-amine]: the IC50 turned out to be 503 nM.
As for `CC1(N)CCN(c2cnc3nc(Sc4ccc(N)nc4Cl)ccc3n2)CC1` [Example 97, 5-((2-(4-amino-4-methylpiperidin-1-yl)pyrido[2,3-b]pyrazin-6-yl)thio)-6-chloropyridin-2-amine], the IC50 is 176 nM.
Compound `Cc1ccc(Sc2ccc3nc(N4CCC(C)(N)CC4)cnc3n2)c(Cl)n1` [Example 98, 1-(6-((2-chloro-6-methylpyridin-3-yl)thio)pyrido[2,3-b]pyrazin-2-yl)-4-methylpiperidin-4-amine] registered an IC50 of 169 nM.
The value for `Nc1nccc(Sc2ccc3nc(N4CC5CCCC(N)C5C4)cnc3n2)c1Cl` (centres unmarked) [Example 99, 2-(6-((2-amino-3-chloropyridin-4-yl)thio)pyrido[2,3-b]pyrazin-2-yl)octahydro-1H-isoindol-4-amine] was 157 nM; that for `Nc1nccc(Sc2ccc3nc(N4CC5CCC(N)C5C4)cnc3n2)c1Cl` (centres unmarked) [Example 100, 2-(6-((2-amino-3-chloropyridin-4-yl)thio)pyrido[2,3-b]pyrazin-2-yl)octahydrocyclopenta[c]pyrrol-4-amine] was 121 nM; that for `NCC1CC2CCCC(C1)N2c1cnc2nc(Sc3ccnc(N)c3Cl)ccc2n1` (centres unmarked) [Example 101, 4-((2-(3-(aminomethyl)-9-azabicyclo[3.3.1]nonan-9-yl)pyrido[2,3-b]pyrazin-6-yl)thio)-3-chloropyridin-2-amine] was 56 nM.
`NCC1CC2CCC(C1)N2c1cnc2nc(Sc3ccnc(N)c3Cl)ccc2n1` (centres unmarked) [Example 102, 4-((2-(3-(aminomethyl)-8-azabicyclo[3.2.1]octan-8-yl)pyrido[2,3-b]pyrazin-6-yl)thio)-3-chloropyridin-2-amine] came in with an IC50 of 44 nM.
